According to ChEMBL document CHEMBL4725309, “Potent, non-covalent reversible BTK inhibitors with 8-amino-imidazo[1,5-a]pyrazine core featuring 3-position bicyclic ring substitutes” (Bioorg Med Chem Lett, 2020):

Columns and labels:
Homo sapiens [1] = species: Homo sapiens; assay: Selectivity index, ratio of IC50 for FRK (unknown origin) to IC50 for recombinant full length BTK (unknown origin) expressed in baculovirus infected Sf9 cells
Homo sapiens [2] = species: Homo sapiens; assay: Selectivity index, ratio of IC50 for LCK (unknown origin) to IC50 for recombinant full length BTK (unknown origin) expressed in baculovirus infected Sf9 cells
[3] = molecular target: Tyrosine-protein kinase FRK (Homo sapiens, UniProt P42685); assay: Inhibition of FRK (unknown origin)
[4] = Half life in Wistar Han rat at 2 mg/kg, iv; assay type: ADME, organism-based; conditions: in vivo
[5] = molecular target: Proto-oncogene tyrosine-protein kinase Src (Homo sapiens, UniProt P12931); assay: Inhibition of SRC (unknown origin)
[6] = molecular target: Tyrosine-protein kinase Lyn (Homo sapiens, UniProt P07948); assay: Inhibition of LYNB (unknown origin)
Homo sapiens [7] = species: Homo sapiens; assay: Selectivity index, ratio of IC50 for SRMS (unknown origin) to IC50 for recombinant full length BTK (unknown origin) expressed in baculovirus infected Sf9 cells
[8] = molecular target: Tyrosine-protein kinase BTK (Homo sapiens, UniProt Q06187); assay: Inhibition of recombinant full length BTK (unknown origin) expressed in baculovirus infected Sf9 cells using Biotin-EQEDEPEGDYFEWLE-NH2 peptide as substrate incubated for 60 mins followed by further incubation with substrate and ATP for 120 mins by TR-FRET assay
Homo sapiens [9] = species: Homo sapiens; assay: Selectivity index, ratio of IC50 for FGR (unknown origin) to IC50 for recombinant full length BTK (unknown origin) expressed in baculovirus infected Sf9 cells
[10] = molecular target: Tyrosine-protein kinase CSK (Homo sapiens, UniProt P41240); assay: Inhibition of CSK (unknown origin)
[11] = molecular target: Tyrosine-protein kinase Srms (Homo sapiens, UniProt Q9H3Y6); assay: Inhibition of SRMS (unknown origin)
[12] = molecular target: Tyrosine-protein kinase Fgr (Homo sapiens, UniProt P09769); assay: Inhibition of FGR (unknown origin)
[13] = molecular target: T1, Tyrosine-protein kinase Tec (Homo sapiens, UniProt P42680); assay: Inhibition of TEC (unknown origin)
T1 sequence (P42680 whole entry): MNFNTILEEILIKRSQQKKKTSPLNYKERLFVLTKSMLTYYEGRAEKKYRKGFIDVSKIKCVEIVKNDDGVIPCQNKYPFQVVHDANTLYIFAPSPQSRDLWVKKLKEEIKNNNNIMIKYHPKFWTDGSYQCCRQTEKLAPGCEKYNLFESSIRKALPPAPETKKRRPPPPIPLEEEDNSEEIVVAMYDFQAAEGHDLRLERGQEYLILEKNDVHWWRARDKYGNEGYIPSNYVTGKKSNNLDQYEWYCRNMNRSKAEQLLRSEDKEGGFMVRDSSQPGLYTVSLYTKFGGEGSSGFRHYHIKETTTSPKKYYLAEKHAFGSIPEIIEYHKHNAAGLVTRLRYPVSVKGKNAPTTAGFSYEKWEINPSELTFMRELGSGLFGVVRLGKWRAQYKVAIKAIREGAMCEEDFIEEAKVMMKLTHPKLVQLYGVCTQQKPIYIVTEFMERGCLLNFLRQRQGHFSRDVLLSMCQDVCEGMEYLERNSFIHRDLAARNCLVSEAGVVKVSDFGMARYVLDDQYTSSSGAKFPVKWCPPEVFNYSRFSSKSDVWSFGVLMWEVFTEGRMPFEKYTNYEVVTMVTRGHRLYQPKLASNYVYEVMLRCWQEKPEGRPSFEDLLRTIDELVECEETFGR

[14] = AUC in Wistar Han rat at 2 mg/kg, iv; assay type: ADME, organism-based; design: dose 2 mg/kg; conditions: in vivo
[15] = Volume of distribution at steady state in Beagle dog at 1 mg/kg, iv; assay type: ADME, organism-based, Canis lupus familiaris; conditions: in vivo, read-out: Vdss
[16] = Cmax in Beagle dog at 2 mg/kg, po; assay type: ADME, organism-based, Canis lupus familiaris; design: route oral, dose 2 mg/kg; conditions: in vivo
[17] = Clearance in Beagle dog at 1 mg/kg, iv; assay type: ADME, organism-based, Canis lupus familiaris; conditions: in vivo
[18] = AUC in Beagle dog at 1 mg/kg, iv; assay type: ADME, organism-based, Canis lupus familiaris; design: dose 1 mg/kg; conditions: in vivo
[19] = Tmax in Beagle dog at 2 mg/kg, po; assay type: ADME, organism-based, Canis lupus familiaris; conditions: in vivo
[20] = Oral bioavailability in Beagle dog at 2 mg/kg; assay type: ADME, organism-based, Canis lupus familiaris; conditions: in vivo
Rattus norvegicus = assay: Antiarthritic activity in Lewis rat model of collagen-induced arthritis assessed as decrease in paw thickness at 1 to 30 mg/kg, po qd and measured for 30 days; assay type: functional, organism-based; conditions: dose mg/kg 1-30, time 30.0 day
[21] = Half life in Beagle dog at 1 mg/kg, iv; assay type: ADME, organism-based, Canis lupus familiaris; conditions: in vivo

Chain of Tyrosine-protein kinase Srms (Q9H3Y6 whole entry): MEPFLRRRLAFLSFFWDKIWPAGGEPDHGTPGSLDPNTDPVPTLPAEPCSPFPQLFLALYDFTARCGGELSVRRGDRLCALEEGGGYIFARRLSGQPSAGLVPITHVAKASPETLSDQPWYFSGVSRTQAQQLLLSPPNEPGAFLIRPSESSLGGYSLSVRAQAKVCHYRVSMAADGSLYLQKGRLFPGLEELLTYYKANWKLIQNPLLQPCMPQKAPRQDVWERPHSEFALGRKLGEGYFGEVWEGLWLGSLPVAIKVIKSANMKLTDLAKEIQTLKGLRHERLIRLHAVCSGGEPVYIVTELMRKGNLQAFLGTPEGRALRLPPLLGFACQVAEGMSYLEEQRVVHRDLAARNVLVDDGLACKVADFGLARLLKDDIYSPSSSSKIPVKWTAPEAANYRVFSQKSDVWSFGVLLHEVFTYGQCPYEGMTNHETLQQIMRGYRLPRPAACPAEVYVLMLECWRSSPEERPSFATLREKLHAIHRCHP
Chain of Tyrosine-protein kinase FRK (P42685 whole entry): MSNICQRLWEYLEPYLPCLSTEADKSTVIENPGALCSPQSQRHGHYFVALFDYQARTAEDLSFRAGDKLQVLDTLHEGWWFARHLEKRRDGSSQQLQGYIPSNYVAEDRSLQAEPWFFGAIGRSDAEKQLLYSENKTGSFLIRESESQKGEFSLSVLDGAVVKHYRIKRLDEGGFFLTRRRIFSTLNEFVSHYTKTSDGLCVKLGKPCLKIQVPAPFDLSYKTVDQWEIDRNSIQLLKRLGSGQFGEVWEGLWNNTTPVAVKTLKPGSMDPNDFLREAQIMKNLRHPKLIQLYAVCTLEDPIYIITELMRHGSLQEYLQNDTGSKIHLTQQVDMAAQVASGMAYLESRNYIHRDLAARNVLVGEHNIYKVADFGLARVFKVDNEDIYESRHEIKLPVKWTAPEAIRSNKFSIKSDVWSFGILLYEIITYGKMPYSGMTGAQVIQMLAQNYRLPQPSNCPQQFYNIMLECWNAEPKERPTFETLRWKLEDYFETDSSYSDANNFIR
Chain of Proto-oncogene tyrosine-protein kinase Src (P12931 2-536 limits assumed): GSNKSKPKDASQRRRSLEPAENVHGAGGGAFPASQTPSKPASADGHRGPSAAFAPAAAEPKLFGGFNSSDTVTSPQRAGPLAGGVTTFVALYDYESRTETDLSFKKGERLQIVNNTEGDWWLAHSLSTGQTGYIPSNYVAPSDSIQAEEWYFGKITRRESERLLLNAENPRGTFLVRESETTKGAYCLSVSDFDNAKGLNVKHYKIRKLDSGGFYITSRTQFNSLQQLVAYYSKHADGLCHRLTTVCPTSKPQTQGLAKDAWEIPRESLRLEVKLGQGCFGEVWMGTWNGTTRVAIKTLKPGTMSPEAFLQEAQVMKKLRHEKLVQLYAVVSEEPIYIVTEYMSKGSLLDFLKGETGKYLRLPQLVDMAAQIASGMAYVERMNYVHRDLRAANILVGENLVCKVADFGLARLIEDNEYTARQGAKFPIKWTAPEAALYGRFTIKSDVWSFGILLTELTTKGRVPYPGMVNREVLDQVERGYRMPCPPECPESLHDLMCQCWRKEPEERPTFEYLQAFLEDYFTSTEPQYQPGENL
Chain of Tyrosine-protein kinase Lyn (P07948 whole entry): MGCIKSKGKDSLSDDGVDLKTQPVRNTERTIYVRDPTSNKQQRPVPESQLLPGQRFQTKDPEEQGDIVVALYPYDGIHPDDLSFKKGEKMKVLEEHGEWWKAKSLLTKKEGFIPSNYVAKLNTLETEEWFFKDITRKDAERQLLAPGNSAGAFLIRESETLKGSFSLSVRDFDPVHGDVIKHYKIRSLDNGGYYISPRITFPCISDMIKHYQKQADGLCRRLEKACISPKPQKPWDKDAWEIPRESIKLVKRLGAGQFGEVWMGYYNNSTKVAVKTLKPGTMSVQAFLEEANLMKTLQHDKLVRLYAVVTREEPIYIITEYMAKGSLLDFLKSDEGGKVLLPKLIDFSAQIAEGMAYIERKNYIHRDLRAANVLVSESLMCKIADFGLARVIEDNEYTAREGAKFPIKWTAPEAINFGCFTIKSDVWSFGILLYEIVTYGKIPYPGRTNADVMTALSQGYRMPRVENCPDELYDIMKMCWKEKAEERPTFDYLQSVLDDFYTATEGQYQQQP
Chain of Tyrosine-protein kinase CSK (P41240 whole entry): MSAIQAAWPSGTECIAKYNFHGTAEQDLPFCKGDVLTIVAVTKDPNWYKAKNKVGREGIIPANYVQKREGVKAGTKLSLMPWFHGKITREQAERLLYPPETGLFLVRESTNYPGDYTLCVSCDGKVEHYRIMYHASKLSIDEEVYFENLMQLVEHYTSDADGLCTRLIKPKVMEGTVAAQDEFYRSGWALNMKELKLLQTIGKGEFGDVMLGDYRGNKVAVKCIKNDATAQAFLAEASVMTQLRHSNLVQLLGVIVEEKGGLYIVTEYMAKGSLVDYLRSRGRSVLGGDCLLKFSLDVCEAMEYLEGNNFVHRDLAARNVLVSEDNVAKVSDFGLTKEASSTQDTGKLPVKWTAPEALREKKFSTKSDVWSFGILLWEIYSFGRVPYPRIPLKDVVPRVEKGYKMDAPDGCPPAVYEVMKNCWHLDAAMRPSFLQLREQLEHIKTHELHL
Chain of Tyrosine-protein kinase Fgr (P09769 whole entry): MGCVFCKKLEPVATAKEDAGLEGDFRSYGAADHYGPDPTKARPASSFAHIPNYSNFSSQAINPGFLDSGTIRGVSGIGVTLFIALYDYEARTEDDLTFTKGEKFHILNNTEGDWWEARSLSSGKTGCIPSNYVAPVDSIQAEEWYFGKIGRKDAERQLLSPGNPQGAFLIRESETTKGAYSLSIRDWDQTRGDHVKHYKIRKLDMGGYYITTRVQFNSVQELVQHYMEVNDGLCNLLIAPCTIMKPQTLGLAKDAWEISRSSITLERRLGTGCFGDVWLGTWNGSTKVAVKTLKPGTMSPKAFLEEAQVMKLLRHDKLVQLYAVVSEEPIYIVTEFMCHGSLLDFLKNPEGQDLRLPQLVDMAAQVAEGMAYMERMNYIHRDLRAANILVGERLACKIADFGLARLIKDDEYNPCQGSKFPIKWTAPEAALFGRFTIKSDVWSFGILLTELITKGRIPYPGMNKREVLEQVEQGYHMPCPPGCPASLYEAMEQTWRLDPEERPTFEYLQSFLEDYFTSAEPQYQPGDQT
Chain of Tyrosine-protein kinase BTK (Q06187 whole entry): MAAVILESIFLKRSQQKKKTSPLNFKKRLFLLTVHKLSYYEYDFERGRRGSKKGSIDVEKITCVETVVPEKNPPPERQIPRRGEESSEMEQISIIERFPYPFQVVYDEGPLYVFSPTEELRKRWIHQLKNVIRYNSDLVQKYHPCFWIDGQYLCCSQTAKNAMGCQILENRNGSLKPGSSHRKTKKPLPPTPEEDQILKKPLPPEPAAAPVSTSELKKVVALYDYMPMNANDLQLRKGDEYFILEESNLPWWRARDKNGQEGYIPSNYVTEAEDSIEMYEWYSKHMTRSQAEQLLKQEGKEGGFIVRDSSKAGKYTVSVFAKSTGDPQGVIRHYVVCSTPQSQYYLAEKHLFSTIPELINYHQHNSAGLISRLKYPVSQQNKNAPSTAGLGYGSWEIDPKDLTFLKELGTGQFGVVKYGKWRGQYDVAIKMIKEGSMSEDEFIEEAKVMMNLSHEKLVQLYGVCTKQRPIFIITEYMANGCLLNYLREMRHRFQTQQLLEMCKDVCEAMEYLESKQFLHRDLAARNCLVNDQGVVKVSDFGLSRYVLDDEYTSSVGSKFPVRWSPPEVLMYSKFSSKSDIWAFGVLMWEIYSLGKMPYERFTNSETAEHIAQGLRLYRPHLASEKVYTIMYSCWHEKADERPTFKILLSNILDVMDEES

| Structure (SMILES) | Ratio IC50 (Homo sapiens [1]) | Ratio IC50 (Homo sapiens [2]) | IC50 [3] [nM] | half-life [4] [h] | IC50 [5] [nM] | IC50 [6] [nM] | Ratio IC50 (Homo sapiens [7]) | IC50 [8] [nM] | Ratio IC50 (Homo sapiens [9]) | IC50 [10] [nM] | IC50 [11] [nM] | IC50 [12] [nM] | IC50 [13] [nM] | AUC [14] [µM·h] | also measured |
| --- | --- | --- | --- | --- | --- | --- | --- | --- | --- | --- | --- | --- | --- | --- | --- |
| CC1(C)OC(=O)N2C[C@H](c3nc(-c4ccc(C(=O)Nc5cc(C(F)(F)F)ccn5)cc4)c4c(N)nccn34)CC[C@H]21 | 300 | 110 | 36 | 3.6 | 69 | 79 | 67 | 0.12 | 283 | 350 | 8 | 34 | 27 | 2.3 | – |
| Nc1nccn2c([C@@H]3CC[C@H]4COC(=O)N4C3)nc(-c3ccc(C(=O)Nc4cc(C(F)(F)F)ccn4)cc3)c12 | 554 | 132 | 46 | 5.1 | 92 | 49 | 169 | 0.083 | 313 | 290 | 14 | 26 | 92 | 5.1 | – |
| Nc1nccn2c([C@@H]3CC[C@H]4CCC(=O)N4C3)nc(-c3ccc(C(=O)Nc4cc(C(F)(F)F)ccn4)cc3)c12 | 340 | 59 | 34 | 2.8 | 33 | 20 | 91 | – | – | 162 | 9.1 | – | 63 | 7.8 | Vd [15]: 1.5 L/kg; Cmax [16]: 1700 nM; clearance [17]: 11 mL/min/kg; AUC [18]: 2.8 µM·h; Tmax [19]: 1 h; bioavailability [20]: 100%; Activity (Rattus norvegicus): Dose-dependent effect; half-life [21]: 3.6 h |
